This passage reports inhibition and IC50 results from patent publication US9988381B2, “Five-member-heterocycle fused pyridine compounds, method of producing the same, and use thereof” (SHANGHAI INSTITUTE OF MATERIA MEDICA, CHINESE ACADEMY OF …, priority 2013, dated 2018).

Molecules are shown by their SMILES. Read-outs that look alike come from different tables or passages of the source.

Assay [1] deals with T1, c-Met kinase domain recombinant protein (Homo sapiens, UniProt P08581).
T1 construct: 50 μL diluted solution of c-Met kinase domain recombinant protein in reaction buffer was added to initiate the reaction
Description: biochemical. The following applies: read-out: Inhibition rate at 10 μM (%). Summed up: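 Recombinant c-Met kinase domain phosphorylated immobilised Poly(Glu,Tyr)4:1 for 1 h at 37 °C in 50 mM HEPES pH 7.4, 50 mM MgCl2, 0.5 mM MnCl2, 0.2 mM Na3VO4, 1 mM DTT with ATP. Product measured by anti-phosphotyrosine PY99 ELISA (HRP, 490 nm), giving percent inhibition; ATP-free wells served as control.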

Assay [2] deals with T1, c-Met kinase domain recombinant protein. The experiment in a line: biochemical. The following applies: for inhibition at 0.1 µM: read-out: Average inhibition rate at 0.1 μM (%); for inhibition at 1 µM: read-out: Average inhibition rate at 1 μM (%); for inhibition at 10 µM: read-out: Average inhibition rate at 10 μM (%). Summed up:
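IC50 came from a four-parameter fit of inhibition rates measured by anti-phosphotyrosine (PY99/HRP) ELISA at 490 nm. The reaction ran 1 hour at 37° C with 5 μM ATP, c-Met kinase domain protein and Poly(Glu,Tyr)4:1-coated wells, in HEPES pH 7.4 buffer containing MgCl2, MnCl2, Na3VO4 and DTT.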

Another assay deals with BaF3/TPR-Met cell. Description: Test III: growth inhibition of engineered BaF3/TPR-Met cells (MTT). The following applies: Mus musculus; for inhibition at 0.2 µM: read-out: Cell proliferation inhibition rate at 200 nM (%); for inhibition at 1 µM: read-out: Cell proliferation inhibition rate at 1 μM (%). The format is cell-based. As for the experimental part:
Assays on the growth inhibition of the compounds against engineered BaF3/TPR-Met cell (engineered cell line having TPR-Met fusion protein stably expressed in cytoplasm, persistently activated, Met dependent sensitive cell line; BaF3 cell was purchased from DSMZ, German) were detected using microculture tetrozolium (MTT) staining. A certain amount of BaF3/TPR-Met cells at log phase were inoculated into 96-well culture plate at 90 µL per well, incubated overnight and then 10 μL compound at various concentrations or vehicle control (normal saline) was added, each concentration was tested in triplicate. After incubation with compound for 72 hours, the incubation was terminated, MTT solution (5 mg/mL) was added at 20 μL per well, incubated at 37° C. for 4 hours, then 100 μL triplet solution (10% SDS−5% isobutanol−0.01M HCl) was added, incubated overnight at 37° C., OD value was measured at 570 nm. […] Experiments were conducted in duplicates.

Another assay concerns EBC-1 cell. The experiment in a line: Test III: growth inhibition of non-small cell carcinoma EBC-1 cell (SRB). The format is cell-based. The following applies: Homo sapiens, EBC-1, 72 h; for inhibition at 0.2 µM: read-out: Cell proliferation inhibition rate at 200 nM (%); for inhibition at 1 µM: read-out: Cell proliferation inhibition rate at 1 μM (%). As for the experimental part: Assays on the growth inhibition of the compounds against gastric tumor cell MKN45, non-small cell carcinoma EBC-1 cell (both are MET persistent activated cell lines due to MET gene amplification, and are Met dependent tumor cell lines, MKN45 cell was purchased from JCRB, Japan, EBC-1 cell was purchased from ATCC, USA) were detected using sulforhodamine B (SRB) staining. […] After incubation with compound for 72 hours, the incubation was terminated, adherent cells were retained and medium was discarded, 10% (w/v) trichloroacetic acid (100 μL pre well) was added, the cells were fixed at 4° C. for 1 hour, then rinsed with distilled water for 5 times, after dried at room temperature, SRB solution (4 mg/mL, dissolved in 1% glacial acetic acid) was added at 100 μL per well, incubated and stained at room temperature for 15 minutes, then rinsed with 1% glacial acetic acid for 5 times to remove any unbound SRB, dried at room temperature, then 10 mM Tris solution was added at 100 μL per well, the optical density (OD) value at 515 nm was measured using VERSMax microplate reader.
Experiments were conducted in duplicates. IC50 value was calculated by fitting the data for a four parameter fit using inhibition curve, the results are shown below in Table 2.

T1 sequence (P08581 1078-1345 limits assumed): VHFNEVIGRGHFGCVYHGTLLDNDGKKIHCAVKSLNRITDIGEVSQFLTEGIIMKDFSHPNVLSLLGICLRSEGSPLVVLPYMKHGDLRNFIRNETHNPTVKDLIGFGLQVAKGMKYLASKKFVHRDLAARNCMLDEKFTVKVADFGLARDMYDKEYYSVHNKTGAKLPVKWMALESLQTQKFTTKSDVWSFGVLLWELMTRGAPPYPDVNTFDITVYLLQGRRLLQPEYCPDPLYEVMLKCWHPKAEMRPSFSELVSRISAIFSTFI

For orientation: IC50 means the concentration needed to halve the response being measured. Turning to `Cn1cc(-c2cnc3cnn(S(=O)(=O)c4c(Cl)nc5sccn45)c3c2)cn1` [Compound 18], in assay [1], the inhibition at 10 µM stood at 64%. Besides, in assay [2], the 50% inhibitory concentration (IC50) was 4.2 ± 0.6 nM, the inhibition at 0.1 µM came out at 52.2%, the inhibition at 1 µM came to 60.5% and the inhibition at 10 µM was found to be 64%. For the same compound, in the assay with BaF3/TPR-Met cell (BaF3, 72 h), the inhibition at 0.2 µM was 1.8% and the inhibition at 1 µM was 94.4%.
Consider `Cn1cc(-c2cnc3cnn(S(=O)(=O)c4cccc5nonc45)c3c2)cn1` [Compound 20, 1-(benzo[1,2,5]oxadiazole-4-sulfonyl)-6-[(1-methyl)-4-pyrazolyl]-1-H-pyrazolo[4,3-b]pyridine], for which the inhibition at 10 µM in assay [1] came to 85.7%. In addition, in assay [2], the IC50 amounted to 316 ± 141 nM, the inhibition at 0.1 µM amounted to 54.9%, the inhibition at 1 µM came to 72.6% and the inhibition at 10 µM stood at 85.7%. Moreover, in the assay with BaF3/TPR-Met cell (BaF3, 72 h), the inhibition at 0.2 µM is 3.2% and the inhibition at 1 µM worked out at 2.9%.
In the case of `Cn1cc(-c2cnc3cnn(S(=O)(=O)c4cnc5cccnn45)c3c2)cn1` [Example 21, 1-(imidazo[1,2-b]pyridazine-3-sulfonyl)-6-[(1-methyl)-4-pyrazolyl]-1-H-pyrazolo[4,3-b]pyridine], in assay [1], the inhibition at 10 µM is 77.9%. Besides, in assay [2], the inhibition at 0.1 µM amounted to 59%, the inhibition at 1 µM amounted to 59.7% and the inhibition at 10 µM is 77.9%. For the same compound, in the assay with BaF3/TPR-Met cell (BaF3/TPR-Met, 1 μM, 72 hours), the inhibition at 1 µM came to 42.7%.
As to `Cn1cc(-c2cnc3cnn(S(=O)(=O)c4cnc5ccc(Cl)cn45)c3c2)cn1` [Example 24, 1-[(6-chloro-imidazo[1,2-a]pyridine)-3-sulfonyl]-6-[(1-methyl)-4-pyrazolyl]-1-H-pyrazolo[4,3-b]pyridine], the inhibition at 10 µM in assay [1] was determined as 70.5%. Also, in assay [2], the IC50 stood at 2.5 ± 1.2 nM, the inhibition at 0.1 µM was determined as 62.9%, the inhibition at 1 µM is 67.8% and the inhibition at 10 µM was 70.5%. In the assay on BaF3/TPR-Met cell (BaF3, 72 h), the inhibition at 0.2 µM is 65.9% and the inhibition at 1 µM was 90.9%.
For the compound `Cn1cc(-c2cnc3cnn(S(=O)(=O)c4cnc5ccc(Cl)nn45)c3c2)cn1` [Example 25, 1-[(6-chloro-imidazo[1,2-b]pyridazine)-3-sulfonyl]-6-[(1-methyl)-4-pyrazolyl]-1-H-pyrazolo[4,3-b]pyridine], the inhibition at 10 µM in assay [1] came to 86.2%. Besides, in assay [2], the IC50 was 21.3 ± 2.3 nM, the inhibition at 0.1 µM was found to be 71.7%, the inhibition at 1 µM was 78% and the inhibition at 10 µM is 86.2%. In the assay on BaF3/TPR-Met cell (BaF3, 72 h), the inhibition at 0.2 µM was 36.3% and the inhibition at 1 µM turned out to be 88.4%.
On to `O=S(=O)(c1cnc2ccccn12)n1ncc2ncc(-c3ccccc3)cc21` [Example 28, 1-(imidazo[1,2-a]pyridine-3-sulfonyl)-6-phenyl-1-H-pyrazolo[4,3-b]pyridine], for which the inhibition at 10 µM in assay [1] turned out to be 70.6%. Moreover, in assay [2], the IC50 worked out at 6.7 ± 0.5 nM, the inhibition at 0.1 µM was 64.6%, the inhibition at 1 µM came to 70.3% and the inhibition at 10 µM came to 70.6%. Moreover, the inhibition at 1 µM with BaF3/TPR-Met cell (BaF3, 72 h) was 66.1%.
For `O=S(=O)(c1cnc2ccccn12)n1ncc2ncc(-c3ccsc3)cc21` [Example 29, 1-(imidazo[1,2-a]pyridine-3-sulfonyl)-6-(3-thienyl)-1-H-pyrazolo[4,3-b]pyridine], the inhibition at 10 µM in assay [1] came to 65.7%. Further, in assay [2], the IC50 is 4.6 ± 1 nM, the inhibition at 0.1 µM was 55.7%, the inhibition at 1 µM came to 63.8% and the inhibition at 10 µM was determined as 65.7%. In addition, in the assay with BaF3/TPR-Met cell (BaF3, 72 h), the inhibition at 1 µM was determined as 92.6%.
On to `CN1CCN(C(=O)c2ccc(-c3cnc4cnn(S(=O)(=O)c5cnc6ccccn56)c4c3)cc2)CC1` [Example 37, 1-(imidazo[1,2-a]pyridine-3-sulfonyl)-6-[4-(4-methylpiperazine-1-carbonyl)phenyl]-1-H-pyrazolo[4,3-b]pyridine], for which, in assay [1], the inhibition at 10 µM was found to be 73.3%. Also, in assay [2], the IC50 was determined as 6.4 ± 2.2 nM, the inhibition at 0.1 µM stood at 60.1%, the inhibition at 1 µM came out at 63.8% and the inhibition at 10 µM was 73.3%. For the same compound, in the assay with BaF3/TPR-Met cell (BaF3, 72 h), the inhibition at 0.2 µM came out at 59.5% and the inhibition at 1 µM came to 96.2%.
Consider `O=S(=O)(c1cnc2ccccn12)n1ncc2ncc(-c3ccc(N4CCOCC4)cc3)cc21` [Example 39, 1-(imidazo[1,2-a]pyridine-3-sulfonyl)-6-(4-morpholinylphenyl)-1-H-pyrazolo[4,3-b]pyridine], for which the inhibition at 10 µM in assay [1] was determined as 68.8%. Moreover, in assay [2], the IC50 came to 2.6 ± 0.3 nM, the inhibition at 0.1 µM was determined as 58.2%, the inhibition at 1 µM amounted to 65% and the inhibition at 10 µM amounted to 68.8%. In addition, in the assay with BaF3/TPR-Met cell (BaF3, 72 h), the inhibition at 0.2 µM was 74.4% and the inhibition at 1 µM was 96.3%.
Turning to `Cn1cc(-c2ccc3ncc(S(=O)(=O)n4ncc5ncc(C6=CCNCC6)cc54)n3c2)cn1` [Example 139, 1-{(6-[(1-methyl)-4-pyrazolyl]-imidazo[1,2-a]pyridine)-3-sulfonyl}-6-[4-(1,2,3,6-tetrahydropyridinyl)]-1-H-pyrazolo[4,3-b]pyridine], in assay [2], the IC50 came out at 1 ± 0.1 nM, the inhibition at 0.1 µM is 90.3% and the inhibition at 1 µM was determined as 88.9%. Also, in the assay on EBC-1 cell, the inhibition at 0.2 µM was 90.7% and the inhibition at 1 µM was found to be 91.6%.
On the same counts, the results for `Cn1cc(-c2ccc3ncc(S(=O)(=O)n4ncc5ncc(-c6cnn(C7CCNCC7)c6)cc54)n3c2)cn1` [Example 140, 1-{(6-[(1-methyl)-4-pyrazolyl]-imidazo[1,2-a]pyridine)-3-sulfonyl}-6-{[1-(4-piperidinyl)]-4-pyrazolyl}-1-H-pyrazolo[4,3-b]pyridine] are 0.5 ± 0.03 nM, 92.4%, 89.5%, 91.4% and 92%.
On the same counts, the results for `Cn1cc(-c2ccc3ncc(S(=O)(=O)n4ncc5ncc(-c6cnn(C7CCN(C(=O)OC(C)(C)C)CC7)c6)cc54)n3c2)cn1` [Example 141, 1-{(6-[(1-methyl)-4-pyrazolyl]-imidazo[1,2-a]pyridine)-3-sulfonyl}-6-{{1-[(1-t-butoxycarbonyl)-4-piperidinyl]}-4-pyrazolyl}-1-H-pyrazolo[4,3-b]pyridine] are 0.3 ± 0.1 nM, 86.3%, 88.5%, 92.6% and 92.7%.
Consider `Cn1cc(-c2ccc3ncc(S(=O)(=O)n4ncc5ncc(-c6ccc(CN7CCOCC7)cc6)cc54)n3c2)cn1` [Example 143, 1-{(6-[(1-methyl)-4-pyrazolyl]-imidazo[1,2-a]pyridine)-3-sulfonyl}-6-(4-morpholinomethylphenyl)-1-H-pyrazolo[4,3-b]pyridine], for which, in assay [2], the IC50 was determined as 0.4 ± 0.1 nM, the inhibition at 0.1 µM was determined as 90% and the inhibition at 1 µM came to 92.1%. Further, in the assay with EBC-1 cell, the inhibition at 0.2 µM came to 92.3% and the inhibition at 1 µM came to 92.5%.
For `Cn1cc(-c2ccc3ncc(S(=O)(=O)n4ncc5ncc(-c6ccccc6)cc54)n3c2)cn1` [Example 144, 1-{(6-[(1-methyl)-4-pyrazolyl]-imidazo[1,2-a]pyridine)-3-sulfonyl}-6-phenyl-1-H-pyrazolo[4,3-b]pyridine] the same measures were 0.3 ± 0.01 nM, 92.1%, 93.1%, 91.1% and 91.4%.
